According to patent publication US8563559B2 (Rigel Pharmaceuticals, Inc., priority 2006, dated 2013):

These molecules were tested against T1, Axl (Homo sapiens, UniProt P30530) (assay: Phospho-AKT in-cell Western assay (inhibition of Axl activity)). Conditions: Table 1, formula (Ia); Hela cells, Axl antibody cross-linking stimulation, phospho-Akt chemiluminescence normalized to relative cell number.
T1 construct: endogenous in cells; host or cells: HeLa
T1 sequence (P30530 26-894): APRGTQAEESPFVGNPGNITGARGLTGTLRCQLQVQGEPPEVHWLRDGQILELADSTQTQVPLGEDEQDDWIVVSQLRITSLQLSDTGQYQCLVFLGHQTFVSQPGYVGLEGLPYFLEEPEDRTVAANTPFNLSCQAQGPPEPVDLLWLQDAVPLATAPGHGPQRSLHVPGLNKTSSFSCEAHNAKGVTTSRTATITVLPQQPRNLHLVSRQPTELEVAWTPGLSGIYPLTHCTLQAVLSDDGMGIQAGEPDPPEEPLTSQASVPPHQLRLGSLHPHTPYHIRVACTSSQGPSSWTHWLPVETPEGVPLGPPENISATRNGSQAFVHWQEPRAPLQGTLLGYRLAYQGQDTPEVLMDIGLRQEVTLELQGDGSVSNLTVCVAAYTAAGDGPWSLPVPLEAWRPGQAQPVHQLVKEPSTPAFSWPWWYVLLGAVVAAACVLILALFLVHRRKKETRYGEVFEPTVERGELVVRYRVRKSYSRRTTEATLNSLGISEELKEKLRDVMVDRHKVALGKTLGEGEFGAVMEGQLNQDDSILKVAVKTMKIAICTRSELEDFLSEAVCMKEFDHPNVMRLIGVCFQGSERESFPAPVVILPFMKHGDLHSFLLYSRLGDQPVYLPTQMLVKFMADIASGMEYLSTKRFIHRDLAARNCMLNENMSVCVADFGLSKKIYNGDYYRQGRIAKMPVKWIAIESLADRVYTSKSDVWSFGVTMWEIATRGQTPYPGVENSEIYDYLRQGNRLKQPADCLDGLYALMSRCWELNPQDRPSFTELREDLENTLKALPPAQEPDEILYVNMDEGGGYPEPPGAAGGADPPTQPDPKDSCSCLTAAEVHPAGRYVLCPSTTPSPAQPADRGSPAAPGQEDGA
Assay type: cell-based
Protocol: The compounds of the invention were tested in the following assay for their ability to inhibit Axl activity.
Phospho-AKT in-Cell Western Assay
• Cell culture plate: 96 well assay plate (Corning 3610), white, clear bottom, tissue-culture treated. • Cells: Hela cells. • Starvation medium: For Axl stimulation: 0.5% FCS (fetal calf serum) in DMEM, plus Axl/Fc (extracellular domain of AXL fused to immunoglobulin Fc region) (R&D, 154-AL) 500 ng/mL. • For EGF (epidermal growth factor) stimulation: 0.5% FCS in DMEM (Dulbecco's modified Eagles medium). • Poly-L-Lysine 0.01% solution (the working solution): 10 μg/ml, dilute In PBS (phosphate buffered saline). • Axl antibody cross-linking: • 1st: Mouse anti-Axl (R&D, MAB154). • 2nd: Biotin-SP-conjugated AffiniPure goat anti-mouse IgG (H+L) (Jackson ImmunoResearch #115-065-003). • Fixing buffer: 4% formaldehyde in PBS. • Wash buffer: 0.1% TritonX-100 in PBS. • Quenching buffer: 3% H2O2, 0.1% Azide in wash buffer, Azide and hydrogen peroxide 1(H2O2) are added fresh. • Blocking buffer: 5% BSA in TBST (tris buffered saline plus 0.1% Tween 20). • Primary antibody: Rabbit anti-human Phospho-Akt antibody (Cell Signaling 9271): 1×250 diluted in blocking buffer. • Secondary antibody: HRP (horse radish peroxidase)-conjugated Goat anti-Rabbit secondary, stock solution: Jackson ImmunoResearch (Goat anti-Rabbit HRP, #111-035-144) 1:1 diluted in glycerol, store at −20° C. The working solution: 1×2000 dilution of stock in blocking buffer. • Chemiluminescent working solution (Pierce, 37030): SuperSignal ELISA (enzyme linked immunosorbant assay) Pico Chemiluminescent substrate. • Crystal Violet solution: Stock: 2.5% Crystal violet in methanol, filtered and kept at ambient temperature. The working solution: dilute the stock 1:20 with PBS immediately before use. • 10% SDS: working solution: 5% SDS (sodium dodecylsulfate), diluted in PBS Methods: Day 1:
A 96 well TC (tissue culture treated) plate was coated with 10 μg/mL poly-L-Lysine at 37° C. for 30 min, washed twice with PBS, and air-dried for 5 minutes before cells were added. Hela cells were seeded at 10,000 cells/well and the cells were starved in 100 μL starvation medium containing Axl/Fc for 24 hrs.
The cells were pre-treated with test compounds by adding 100 μL of 2× test compound to the starvation medium on the cells. The cells were incubated at 37° C. for 1 hr before stimulation.
The cells were stimulated by Axl-antibody cross-linking as follows: A 5×1st/2nd Axl antibody mixture was made (37.5 μg/mL 1st/100 μg/mL 2nd) in starvation medium and nutated at 4° C. with thorough mixing for 1-2 hours for clustering. The resulting mix was warmed to 37° C. 50 μL of 5×Axl 1st/2nd of antibody cluster was added to the cells and the cells were incubated at 37° C. for 5 min.
After 5 minutes stimulation, the plate was flicked to remove medium and the plate was tapped onto paper towels. Formaldehyde (4.0% in PBS, 100 μL) was added to fix the cells and the cells were incubated at ambient temperature for 20 min without shaking.
The cells were washed with a plate washer buffer to remove the formaldehyde solution. The plate was flicked to removed excess wash buffer and tapped onto paper towels. Quenching buffer (100 μL) was added to each well and the cells were incubated at ambient temperature for 20 minutes without shaking.
The cells were washed with a plate washer buffer to remove the quenching buffer. Blocking buffer (100 μL) was added and the cells were incubated at ambient temperature for at least an hour with gentle shaking.
The cells were washed with a plate washer buffer and diluted primary antibody (50 μL) was added to each well (blocking buffer was added to the negative control wells instead). The plates were incubated overnight at 4° C. with gentle shaking.
The wash buffer was removed, diluted secondary antibody (100 μL) was added, and the cells were incubated at ambient temperature for 1 hour with gentle shaking. […]

| IC50 [nM] | Compound |
| --- | --- |
| > 20000 | CN1CCN(c2ccc(Nc3nccc(N[C@@]4(CCO)[C@@H](C(N)=O)C[C@H]5C[C@@H]4C5(C)C)n3)cc2F)CC1 [Compound 19, (1R,2R,3S,5R)-2-(2-(3-fluoro-4-(4-methylpiperazin-1-yl)phenylamino)pyrimidin-4-ylamino)-2-(2-hydroxyethyl)-6,6-dimethylbicyclo[3.1.1]heptane-3-carboxamide] |
| < 1000 | CC1(C)[C@H]2C[C@H](C(N)=O)[C@](C)(Nc3nc(Nc4ccc(OCCN5CCCC5)cc4)ncc3Cl)[C@@H]1C2 [Compound 29, (1R,2R,3S,5R)-2-(5-chloro-2-(4-(2-(pyrrolidin-1-yl)ethoxy)phenylamino)pyrimidin-4-ylamino)-2,6,6-trimethylbicyclo[3.1.1]heptane-3-carboxamide] |
| < 1000 | CC1(C)[C@H]2C[C@H](C(N)=O)[C@](C)(Nc3nc(Nc4ccc(OCCN5CCCC5)c(F)c4)ncc3Cl)[C@@H]1C2 [Compound 30, (1R,2R,3S,5R)-2-(5-chloro-2-(3-fluoro-4-(2-(pyrrolidin-1-yl)ethoxy)phenylamino)pyrimidin-4-ylamino)-2,6,6-trimethylbicyclo[3.1.1]heptane-3-carboxamide] |
| < 1000 | CNC(=O)[C@H]1C[C@H]2C[C@H](C2(C)C)[C@@]1(C)Nc1nc(Nc2ccc(N3CCC(N4CCN(C)CC4)CC3)c(F)c2)ncc1Cl [Compound 31, (1R,2R,3S,5R)-2-(5-chloro-2-(3-fluoro-4-(4-(4-methylpiperazin-1-yl)piperidin-1-yl)phenylamino)pyrimidin-4-ylamino)-N,2,6,6-tetramethylbicyclo[3.1.1]heptane-3-carboxamide] |
| < 1000 | CCN(CC)C1CCN(c2ccc(Nc3ncc(Cl)c(N[C@@]4(C)[C@@H](C(=O)NC)C[C@H]5C[C@@H]4C5(C)C)n3)cc2F)CC1 [Compound 32, (1R,2R,3S,5R)-2-(5-chloro-2-(3-fluoro-4-(4-(diethylamino)piperidin-1-yl)phenylamino)pyrimidin-4-ylamino)-N,2,6,6-tetramethylbicyclo[3.1.1]heptane-3-carboxamide] |
| < 1000 | CNC(=O)[C@H]1C[C@H]2C[C@H](C2(C)C)[C@@]1(C)Nc1nc(Nc2ccc(OCCN(C)C3CCCC3)cc2)ncc1Cl [Compound 33, (1R,2R,3S,5R)-2-(5-chloro-2-(4-(2-((cyclopentyl)(methyl)amino)ethoxy)phenylamino)pyrimidin-4-ylamino)-N,2,6,6-tetramethylbicyclo[3.1.1]heptane-3-carboxamide] |
| > 20000 | CNC(=O)[C@H]1C[C@H]2C[C@H](C2(C)C)[C@@]1(C)Nc1nc(Nc2ccc(N3CCC(F)(F)CC3)c(Cl)c2)ncc1F [Compound 34, (1R,2R,3S,5R)-2-(5-fluoro-2-(3-chloro-4-(4,4-difluoropipendin-1-yl)phenylamino)pyrimidin-4-ylamino)-N,2,6,6-tetramethylbicyclo[3.1.1]heptane-3-carboxamide] |
| > 20000 | CNC(=O)[C@H]1C[C@H]2C[C@H](C2(C)C)[C@@]1(C)Nc1nc(Nc2ccc(N3CCC(F)(F)CC3)c(F)c2)ncc1F [Compound 35, (1R,2R,3S,5R)-2-(5-fluoro-2-(3-fluoro-4-(4,4-difluoropiperidin-1-yl)phenylamino)pyrimidin-4-ylamino)-N,2,6,6-tetramethylbicyclo[3.1.1]heptane-3-carboxamide] |
| 1000 to 10000 | CNC(=O)[C@H]1C[C@H]2C[C@H](C2(C)C)[C@@]1(C)Nc1nc(Nc2ccc(N3CCN(S(C)(=O)=O)CC3)c(Cl)c2)ncc1F [Compound 36, (1R,2R,3S,5R)-2-(5-fluoro-2-(3-chloro-4-(4-methylsulfonylpiperazin-1-yl)phenylamino)pyrimidin-4-ylamino)-N,2,6,6-tetramethylbicyclo[3.1.1]heptane-3-carboxamide] |

Same assay, conditions: Table 2, formula (Ib); Hela cells, Axl antibody cross-linking stimulation, phospho-Akt chemiluminescence normalized to relative cell number

| IC50 [nM] | Compound |
| --- | --- |
| 1000 to 10000 | CNC(=O)[C@@H]1C[C@@H]2C[C@@H](C2(C)C)[C@]1(C)Nc1nc(Nc2ccc(N3CCOCC3)cc2)ncc1Cl [Compound 21, (1S,2S,3R,5S)-2-(5-chloro-2-(4-morpholinophenylamino)pyrimidin-4-ylamino)-N,2,6,6-tetramethylbicyclo[3.1.1]heptane-3-carboxamide] |
| > 20000 | CNC(=O)[C@@H]1C[C@@H]2C[C@@H](C2(C)C)[C@]1(C)Nc1nc(Nc2ccc(OCCN3CCCC3)cc2)ncc1Cl [Compound 22, (1S,2S,3R,5S)-2-(5-chloro-2-(4-(2-(pyrrolidin-1-yl)ethoxy)phenylamino)pyrimidin-4-ylamino)-N,2,6,6-tetramethylbicyclo[3.1.1]heptane-3-carboxamide] |
| 1000 to 10000 | CNC(=O)[C@@H]1C[C@@H]2C[C@@H](C2(C)C)[C@]1(C)Nc1nc(Nc2ccc(OCCN3CCCC3)c(F)c2)ncc1Cl [Compound 23, (1S,2S,3R,5S)-2-(5-chloro-2-(3-fluoro-4-(2-(pyrrolidin-1-yl)ethoxy)phenylamino)pyrimidin-4-ylamino)-N,2,6,6-tetramethylbicyclo[3.1.1]heptane-3-carboxamide] |

Same assay, conditions: Table 3, formula (Ic); Hela cells, Axl antibody cross-linking stimulation, phospho-Akt chemiluminescence normalized to relative cell number

| IC50 [nM] | Compound |
| --- | --- |
| > 20000 | CNC(=O)[C@H]1C[C@H]2C[C@H](C2(C)C)[C@@]1(C)Nc1nc(Nc2ccc3c(c2)OCC(=O)N3)ncc1Cl [Compound 28, (1R,2R,3S,5R)-2-(5-chloro-2-(3-oxo-3,4-dihydro-2H-benzo[b][1,4]oxazin-7-ylamino)pyrimidin-4-ylamino)-N,2,6,6-tetramethylbicyclo[3.1.1]heptane-3-carboxamide] |

Same assay, conditions: Table 4, formula (Id); Hela cells, Axl antibody cross-linking stimulation, phospho-Akt chemiluminescence normalized to relative cell number

| IC50 [nM] | Compound |
| --- | --- |
| 1000 to 10000 | CNC(=O)[C@H]1C[C@H]2C[C@H](C2(C)C)[C@@]1(C)Nc1nc(Nc2ccc3[nH]ccc3c2)ncc1Cl [Compound 26, (1R,2R,3S,5R)-2-(2-(1H-indol-5-ylamino)-5-chloropyrimidin-4-ylamino)-N,2,6,6-tetramethylbicyclo[3.1.1]heptane-3-carboxamide] |
| < 1000 | CNC(=O)[C@H]1C[C@H]2C[C@H](C2(C)C)[C@@]1(C)Nc1nc(Nc2ccc3c(c2)CCN3CCN(C)C)ncc1Cl [Compound 27, (1R,2R,3S,5R)-2-(5-chloro-2-(1-(2-(dimethylamino)ethyl)indolin-5-ylamino)pyrimidin-4-ylamino)-N,2,6,6-tetramethylbicyclo[3.1.1]heptane-3-carboxamide] |
